Measured values from patent US10934310B2, “Inhibitors of Bruton's tyrosine kinase and method of their use” (JANSSEN PHARMACEUTICA NV, priority 2015, dated 2021).

Target: unphosphorylated-BTK kinase domain (UP-BTK), GST-tagged human BTK (389-659aa) (Homo sapiens (Human), UniProt Q06187)
Assay: BTK Kinase Lanthascreen Binding Assay
Details: Lanthascreen binding, 60 minutes incubation; pIC50 = negative log of the IC50 in molar
Protocol: BTK Kinase Lanthascreen Binding Assay:
A BTK kinase lanthascreen binding assay monitors compound binding to unphosphorylated-BTK kinase domain (UP-BTK), by competing with a fluorescent labeled tracer. […] Data were analyzed using Xlfit™ version 5.3 from ID Business Solutions (Guildford), Microsoft Excel add-in. pIC50 refers to the negative log of the IC50 in molar.

unphosphorylated-BTK kinase domain (UP-BTK), GST-tagged human BTK (389-659aa), sequence (Q06187 389-659): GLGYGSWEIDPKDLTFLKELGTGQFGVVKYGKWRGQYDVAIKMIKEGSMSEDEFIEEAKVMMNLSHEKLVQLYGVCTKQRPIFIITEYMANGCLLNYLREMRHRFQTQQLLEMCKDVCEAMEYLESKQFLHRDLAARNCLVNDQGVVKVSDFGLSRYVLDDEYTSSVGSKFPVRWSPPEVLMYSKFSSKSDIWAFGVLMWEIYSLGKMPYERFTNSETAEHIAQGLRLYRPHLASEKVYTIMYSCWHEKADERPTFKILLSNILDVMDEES

| BTK_I_binding pIC50 | SMILES |
| --- | --- |
| 7.53 | C=CC(=O)N[C@H]1CCC[C@@H]1NC(=O)c1sc2nccc3c2c1NC(=O)N3c1ccc(Oc2ccccc2)cc1C [Example 458, N-((1S,2S)-2-Acrylamidocyclopentyl)-5-(2-methyl-4-phenoxyphenyl)-4-oxo-4,5-dihydro-3H-1-thia-3,5,8-triazaacenaphthylene-2-carboxamide] |
| 8.09 | C=CC(=O)N[C@H]1CCC[C@H]1NC(=O)c1sc2nccc3c2c1NC(=O)N3c1cnc(CC(C)C)cc1C [Example 298, N-((1R,2S)-2-Acrylamidocyclopentyl)-5-(S)-(6-isobutyl-4-methylpyridin-3-yl)-4-oxo-4,5-dihydro-3H-1-thia-3,5,8-triazaacenaphthylene-2-carboxamide] |
| 7.16 | C=CC(=O)N[C@H]1CCC[C@H]1NC(=O)c1sc2nccc3c2c1NC(=O)N3c1ccc(Oc2cccnn2)cc1 [Example 387, N-((1R,2S)-2-Acrylamidocyclopentyl)-4-oxo-5-(4-(pyridazin-3-yloxy)phenyl)-4,5-dihydro-3H-1-thia-3,5,8-triazaacenaphthylene-2-carboxamide] |
| 7.94 | CCC(=O)N[C@H]1CC[C@@H](NC(=O)c2sc3nccc4c3c2NC(=O)N4c2cnc(Oc3ccccc3)cc2C)C1 (single isomer, unassigned) [Example 361, 5-(*S)-(4Methyl-6-phenoxypyridin-3-yl)-4-oxo-N-((1R,3S)-3-propionamidocyclopentyl)-4,5-dihydro-3H-1-thia-3,5,8-triazaacenaphthylene-2-carboxamide] |
| 7.63 | Cc1cc(CC(C)C)ncc1N1C(=O)Nc2c(C(=O)N[C@@H]3CCC[C@@H]3NC(=O)/C(C#N)=C/C3CC3)sc3nccc1c23 (single isomer, unassigned) [Example 466, N-((1R,2S)-2-((E)-2-Cyano-3-cyclopropylacrylamido)cyclopentyl)-5-(*S)-(6-isobutyl-4-methylpyridin-3-yl)-4-oxo-4,5-dihydro-3H-1-thia-3,5,8-triazaacenaphthylene-2-carboxamide] |
| 6.78 | Cc1cc(Oc2cccc(COc3ccccc3C#N)c2)ccc1N1C(=O)Nc2c(C(=O)NC3CCCCC3)sc3nccc1c23 [Example 460, 5-(4-(3-((2-Cyanophenoxy)methyl)phenoxy)-2-methylphenyl)-N-cyclohexyl-4-oxo-4,5-dihydro-3H-1-thia-3,5,8-triazaacenaphthylene-2-carboxamide] |

| SMILES | BTK_I_binding pIC50 |
| --- | --- |
| C=CC(=O)N[C@H]1CCC[C@H]1NC(=O)c1sc2nccc3c2c1NC(=O)N3c1cnc(OCC(C)C)cc1C (single isomer, unassigned) [Example 373, N-((1R,2S)-2-Acrylamidocyclopentyl)-5-(*S)-(6-isobutoxy-4-methylpyridin-3-yl)-4-oxo-4,5-dihydro-3H-1-thia-3,5,8-triazaacenaphthylene-2-carboxamide] | 8.25 |

Same assay, conditions: compound, 50 nM Tracer 236, 2 nM anti-GST antibody, 60 minutes; pIC50 = negative log of the IC50 in molar

| SMILES | BTK_I_binding pIC50 |
| --- | --- |
| C=CC(=O)N[C@@H]1CCC[C@@H](NC(=O)c2sc3nccc4c3c2NC(=O)N4c2ccc(OC(C)C)cc2C)C1 (single isomer, unassigned) [Example 215, N-((1R,3R)-3-Acrylamidocyclohexyl)-5-(*R)-(4-isopropoxy-2-methylphenyl)-4-oxo-4,5-dihydro-3H-1-thia-3,5,8-triazaacenaphthylene-2-carboxamide] | 7.13 |
| C=CC(=O)N[C@H]1CCC[C@H]1NC(=O)c1sc2nccc3c2c1NC(=O)N3c1ccc(OC(C)C)cc1 [Example 205, N-((1R,2S)-2-Acrylamidocyclopentyl)-5-(4-isopropoxyphenyl)-4-oxo-4,5-dihydro-3H-1-thia-3,5,8-triazaacenaphthylene-2-carboxamide] | 7.62 |
| Cc1cc(Oc2ccccc2)ccc1N1C(=O)Nc2c(C(=O)N[C@H]3CCC[C@@H]3N)sc3nccc1c23 [Example 41, N-((1S,2S)-2-Aminocyclopentyl)-5-(2-methyl-4-phenoxyphenyl)-4-oxo-4,5-dihydro-3H-1-thia-3,5,8-triazaacenaphthylene-2-carboxamide] | 6.37 |
| C=CC(=O)N[C@H]1CCCC[C@H]1NC(=O)c1sc2nccc3c2c1NC(=O)N3c1ccc(OC2CCC2)nc1C [Example 187, N-((1R,2S)-2-Acrylamidocyclohexyl)-5-(6-cyclobutoxy-2-methylpyridin-3-yl)-4-oxo-4,5-dihydro-3H-1-thia-3,5,8-triazaacenaphthylene-2-carboxamide] | 7.30 |
| C=CC(=O)N[C@H]1CCC[C@H]1NC(=O)c1sc2nccc3c2c1NC(=O)N3c1ccnc(C(C)C)c1 [Example 207, N-((1R,2S)-2-Acrylamidocyclopentyl)-5-(2-isopropylpyridin-4-yl)-4-oxo-4,5-dihydro-3H-1-thia-3,5,8-triazaacenaphthylene-2-carboxamide] | 7.53 |
| C=CC(=O)N[C@H]1CCCC[C@H]1NC(=O)c1sc2nccc3c2c1NC(=O)N3c1cnc(OC2CCCC2)cc1C [Example 223, N-((1R,2S)-2-Acrylamidocyclohexyl)-5-(6-(cyclopentyloxy)-4-methylpyridin-3-yl)-4-oxo-4,5-dihydro-3H-1-thia-3,5,8-triazaacenaphthylene-2-carboxamide] | 7.81 |
| N[C@H]1CCCC[C@H]1NC(=O)c1sc2nccc3c2c1NC(=O)N3c1ccnc(-c2ccccc2)c1 [Example 260, N-((1R,2S)-2-Aminocyclohexyl)-4-oxo-5-(2-phenylpyridin-4-yl)-4,5-dihydro-3H-1-thia-3,5,8-triazaacenaphthylene-2-carboxamide] | 6.45 |

Next, values leading:

| BTK_I_binding pIC50 | SMILES |
| --- | --- |
| 6.33 | CC(C)(C)OC(=O)N[C@H]1CC[C@H](NC(=O)c2sc3nccc4c3c2NC(=O)N4c2ccc(Oc3ccccc3)cc2)CC1 [Example 151, tert-Butyl trans-((1R,4R)-4-(4-oxo-5-(4-phenoxyphenyl)-4,5-dihydro-3H-1-thia-3,5,8-triazaacenaphthylene-2-carboxamido)cyclohexyl)carbamate] |
| 6.84 | CNCC(=O)N[C@H]1CC[C@H](NC(=O)c2sc3nccc4c3c2NC(=O)N4c2ccc(Oc3ccccc3)cc2C)C1 [Example 246, 5-(2-Methyl-4-phenoxyphenyl)-N-((1S,3S)-3-(2-(methylamino)acetamido)cyclopentyl)-4-oxo-4,5-dihydro-3H-1-thia-3,5,8-triazaacenaphthylene-2-carboxamide] |
| 7.00 | Cc1cc(Oc2ccccc2)ccc1N1C(=O)Nc2c(C(=O)N[C@H]3CC[C@@H](N(C)C)C3)sc3nccc1c23 [Example 73, N-((1S,3R)-3-(Dimethylamino)cyclopentyl)-5-(2-methyl-4-phenoxyphenyl)-4-oxo-4,5-dihydro-3H-1-thia-3,5,8-triazaacenaphthylene-2-carboxamide] |
| 5.88 | CC(=O)N[C@H]1CCCC[C@@H]1NC(=O)c1sc2nccc3c2c1NC(=O)N3c1ccc(Oc2ccccc2)cc1C [Example 55, N-((1S,2S)-2-Acetamidocyclohexyl)-5-(2-methyl-4-phenoxyphenyl)-4-oxo-4,5-dihydro-3H-1-thia-3,5,8-triazaacenaphthylene-2-carboxamide] |
| 6.12 | CC(=O)N[C@@H]1CCCC[C@H]1NC(=O)c1sc2nccc3c2c1NC(=O)N3c1ccc(Oc2ccccc2)cc1C [Example 47, N-((1R,2R)-2-Acetamidocyclohexyl)-5-(2-methyl-4-phenoxyphenyl)-4-oxo-4,5-dihydro-3H-1-thia-3,5,8-triazaacenaphthylene-2-carboxamide] |
| 7.33 | Cc1cc(Oc2ccccc2)ccc1N1C(=O)Nc2c(C(=O)N[C@@H]3CCC[C@@H](N)C3)sc3nccc1c23 (single isomer, unassigned) [Example 181] |
| 7.02 | Cc1cc(Oc2ccccc2)ccc1N1C(=O)Nc2c(C(=O)N[C@H]3CCC[C@@H]3O)sc3nccc1c23 [Example 20, N-((1S,2S)-2-Hydroxycyclopentyl)-5-(2-methyl-4-phenoxyphenyl)-4-oxo-4,5-dihydro-3H-1-thia-3,5,8-triazaacenaphthylene-2-carboxamide] |
| 7.41 | CC(=O)N[C@@H]1CCC[C@H]1NC(=O)c1sc2nccc3c2c1NC(=O)N3c1ccc(Oc2ccccc2)cc1C (single isomer, unassigned) [Example 67, N-((1R,2R)-2-Acetamidocyclopentyl)-5-(*S)-(2-methyl-4-phenoxyphenyl)-4-oxo-4,5-dihydro-3H-1-thia-3,5,8-triazaacenaphthylene-2-carboxamide] |

Same assay, conditions: read-out: BTK_I_binding pIC50 (converted)

| IC50 [nM] | SMILES |
| --- | --- |
| > 1000 | C=CC(=O)N[C@H]1CCC[C@@H](NC(=O)c2sc3nccc4c3c2NC(=O)N4c2ccnc(-c3ccccc3)c2)C1 [Example 283, N-((1R,3S)-3-Acrylamidocyclohexyl)-4-oxo-5-(2-phenylpyridin-4-yl)-4,5-dihydro-3H-1-thia-3,5,8-triazaacenaphthylene-2-carboxamide] |
| > 1000 | Cc1nc(Oc2ccccc2)ccc1N1C(=O)Nc2c(C(=O)N[C@H]3CCC[C@@H](N)C3)sc3nccc1c23 (single isomer, unassigned) [Example 414, N-((1S,3R)-3-Aminocyclohexyl)-5-(*S)-(2-methyl-6-phenoxypyridin-3-yl)-4-oxo-4,5-dihydro-3H-1-thia-3,5,8-triazaacenaphthylene-2-carboxamide] |
| > 1000 | CC(C)c1cc(N2C(=O)Nc3c(C(=O)N[C@@H]4CCC[C@@H]4N)sc4nccc2c34)ccn1 [Example 270, N-((1R,2S)-2-Aminocyclopentyl)-5-(2-isopropylpyridin-4-yl)-4-oxo-4,5-dihydro-3H-1-thia-3,5,8-triazaacenaphthylene-2-carboxamide] |
| > 1000 | CC(=O)N[C@H]1CCC[C@H]1NC(=O)c1sc2nccc3c2c1NC(=O)N3c1ccnc(-c2ccccc2)c1 [Example 280, N-((1R,2S)-2-Acetamidocyclopentyl)-4-oxo-5-(2-phenylpyridin-4-yl)-4,5-dihydro-3H-1-thia-3,5,8-triazaacenaphthylene-2-carboxamide] |
